Data as given in publication PMC9934367, “Functional impact of subunit composition and compensation on Drosophila melanogaster nicotinic receptors–targets of neonicotinoids” (PLOS Genetics, 2023).

Test system: D. melanogaster nAChRs
Assay: Comparison of agonist activity between nAChRs expressed in X. laevis oocytes (one-way ANOVA, Kruskal-Wallis);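 for Difference of Imax values: Imax relative to maximal plateau response to ACh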
Format: cell-based
Experimental: We minimised the use of X. laevis according to the UK Animals (Scientific Procedures) Act, 1986. […] Oocytes were defolliculated after collagenase treatment in Ca^2+-free standard oocyte saline (Ca^2+-free SOS). cRNAs of the nAChR subunits and co-factors mixed at a concentration of 0.1 mg/mL was injected into oocytes at a volume of 50 nL. Then the oocytes were incubated in the incubation medium (SOS supplemented with sodium pyruvate (Nacalai Tesque, #13058–12), penicillin-streptomycin (MilliporeSigma, #P4333), gentamycin (Nacalai Tesque, #16672–04), and 4% horse serum (Thermo Fisher Scientific, #26050–070) for 3−4 days prior to electrophysiology.
Each defolliculated X. laevis oocyte was secured in a Perspex recording chamber and perfused with the standard oocyte saline (SOS) containing 0.5 μM atropine (SOSA) at a flow rate of 7−10 mL/min [48]. Two glass electrodes filled with 2 M KCl were impaled into each oocyte and the membrane potential was clamped at -100 mV. […] The peak amplitude of the response was measured and analysed by pCLAMP (Molecular Devices, USA).
Y=Imax/1+10^(logEC50‐X)nH
Where Y is the normalised response, X is log[ligand (M)], EC50 is the half maximal concentration (M), Imax is the maximum normalised response and nH is the Hill coefficient.
Prism software was employed for the statistical analyses. […] One-way ANOVA was used to analyse the differences of the ligand agonist activity in terms of pEC50 on the various nAChRs expressed in X. laevis as well as data obtained with D. melanogaster larvae and adults.

[1] = Dα1/Dβ1 vs. Dα1/Dα2/Dα3/Dβ1/Dβ2
[2] = Dα2/Dα3/Dβ1/Dβ2 vs. Dα1/Dα2/Dα3/Dβ1/Dβ2
[3] = Dα2/Dα3/Dβ1 vs. Dα1/Dα2/Dα3/Dβ1
[4] = Dα2/Dα3/Dβ1 vs. Dα1/Dα2/Dα3/Dβ1/Dβ2
[5] = Dα2/Dα3/Dβ1 vs. Dα1/Dα2/Dβ1/Dβ2
[6] = Dα2/Dα3/Dβ1 vs. Dα1/Dα3/Dβ1/Dβ2
[7] = Dα2/Dα3/Dβ1 vs. Dα2/Dα3/Dβ1/Dβ2
[8] = Dα3/Dβ1/Dβ2 vs. Dα1/Dα2/Dα3/Dβ1/Dβ2
[9] = Dα3/Dβ1/Dβ2 vs. Dα1/Dα2/Dβ1/Dβ2
[10] = Dα3/Dβ1/Dβ2 vs. Dα1/Dα3/Dβ1/Dβ2
[11] = Dα3/Dβ1/Dβ2 vs. Dα2/Dα3/Dβ1/Dβ2
[12] = Dα3/Dβ1 vs. Dα1/Dα2/Dα3/Dβ1/Dβ2

With `N#C/N=C1\SCCN1Cc1ccc(Cl)nc1` [Thiacloprid, thiacloprid] the “Difference of pEC50 values” (Dα1/Dβ1/Dβ2 vs. Dα2/Dα3/Dβ1/Dβ2) was -0.22, the “Difference of Imax values” (Dα1/Dβ1/Dβ2 vs. Dα3/Dβ1/Dβ2) was 0.021 and the “Difference of pEC50 values” (Dα1/Dβ1/Dβ2 vs. Dα3/Dβ1/Dβ2) was -0.46. For the same compound, the “Difference of Imax values” (Dα1/Dβ1 vs. Dα1/Dα2/Dα3/Dβ1) was 0.044, the “Difference of pEC50 values” (Dα1/Dβ1 vs. Dα1/Dα2/Dα3/Dβ1) was 0.06 and the “Difference of Imax values” [1] was 0.032. For the same compound, the “Difference of pEC50 values” [1] was 0.61, the “Difference of Imax values” (Dα1/Dβ1 vs. Dα1/Dα2/Dβ1) was 0.066 and the “Difference of pEC50 values” (Dα1/Dβ1 vs. Dα1/Dα2/Dβ1) was 0.87. For the same compound, the “Difference of Imax values” (Dα1/Dβ1 vs. Dα1/Dα2/Dβ1/Dβ2) was 0.017, the “Difference of pEC50 values” (Dα1/Dβ1 vs. Dα1/Dα2/Dβ1/Dβ2) was 0.69 and the “Difference of Imax values” (Dα1/Dβ1 vs. Dα1/Dα3/Dβ1) was 0.044. The “Difference of pEC50 values” (Dα1/Dβ1 vs. Dα1/Dα3/Dβ1) was -0.28, the “Difference of Imax values” (Dα1/Dβ1 vs. Dα1/Dα3/Dβ1/Dβ2) was -0.016 and the “Difference of pEC50 values” (Dα1/Dβ1 vs. Dα1/Dα3/Dβ1/Dβ2) was -0.21. The “Difference of Imax values” (Dα1/Dβ1 vs. Dα1/Dβ1/Dβ2) was 0.048, the “Difference of pEC50 values” (Dα1/Dβ1 vs. Dα1/Dβ1/Dβ2) was -0.07 and the “Difference of Imax values” (Dα1/Dβ1 vs. Dα2/Dα3/Dβ1) was 0.046. The “Difference of pEC50 values” (Dα1/Dβ1 vs. Dα2/Dα3/Dβ1) was 0.87, the “Difference of Imax values” (Dα1/Dβ1 vs. Dα2/Dα3/Dβ1/Dβ2) was 0.074 and the “Difference of pEC50 values” (Dα1/Dβ1 vs. Dα2/Dα3/Dβ1/Dβ2) was -0.29. The “Difference of Imax values” (Dα1/Dβ1 vs. Dα3/Dβ1) was 0.075, the “Difference of pEC50 values” (Dα1/Dβ1 vs. Dα3/Dβ1) was -0.01 and the “Difference of Imax values” (Dα1/Dβ1 vs. Dα3/Dβ1/Dβ2) was 0.069. For the same compound, the “Difference of pEC50 values” (Dα1/Dβ1 vs. Dα3/Dβ1/Dβ2) was -0.53, the “Difference of Imax values” [2] was -0.042 and the “Difference of pEC50 values” [2] was 0.90. For the same compound, the “Difference of Imax values” [3] was -0.002, the “Difference of pEC50 values” [3] was -0.81 and the “Difference of Imax values” [4] was -0.014. The “Difference of pEC50 values” [4] was -0.26, the “Difference of Imax values” [5] was -0.029 and the “Difference of pEC50 values” [5] was -0.18. The “Difference of Imax values” [6] was -0.062, the “Difference of pEC50 values” [6] was -1.08 and the “Difference of Imax values” (Dα2/Dα3/Dβ1 vs. Dα1/Dβ1/Dβ2) was 0.002. The “Difference of pEC50 values” (Dα2/Dα3/Dβ1 vs. Dα1/Dβ1/Dβ2) was -0.94, the “Difference of Imax values” [7] was 0.028 and the “Difference of pEC50 values” [7] was -1.16. The “Difference of Imax values” (Dα2/Dα3/Dβ1 vs. Dα3/Dβ1/Dβ2) was 0.023, the “Difference of pEC50 values” (Dα2/Dα3/Dβ1 vs. Dα3/Dβ1/Dβ2) was -1.40 and the “Difference of Imax values” [8] was -0.037. The “Difference of pEC50 values” [8] was 1.14, the “Difference of Imax values” [9] was -0.052 and the “Difference of pEC50 values” [9] was 1.22. For the same compound, the “Difference of Imax values” [10] was -0.085, the “Difference of pEC50 values” [10] was 0.32 and the “Difference of Imax values” [11] was 0.005. For the same compound, the “Difference of pEC50 values” [11] was 0.24, the “Difference of Imax values” (Dα3/Dβ1 vs. Dα1/Dα2/Dα3/Dβ1) was -0.031 and the “Difference of pEC50 values” (Dα3/Dβ1 vs. Dα1/Dα2/Dα3/Dβ1) was 0.07. For the same compound, the “Difference of Imax values” [12] was -0.043, the “Difference of pEC50 values” [12] was 0.62 and the “Difference of Imax values” (Dα3/Dβ1 vs. Dα1/Dα2/Dβ1) was -0.009. The “Difference of pEC50 values” (Dα3/Dβ1 vs. Dα1/Dα2/Dβ1) was 0.88, the “Difference of Imax values” (Dα3/Dβ1 vs. Dα1/Dα2/Dβ1/Dβ2) was -0.058 and the “Difference of pEC50 values” (Dα3/Dβ1 vs. Dα1/Dα2/Dβ1/Dβ2) was 0.70. For the same compound, the “Difference of Imax values” (Dα3/Dβ1 vs. Dα1/Dα3/Dβ1) was -0.031, the “Difference of pEC50 values” (Dα3/Dβ1 vs. Dα1/Dα3/Dβ1) was -0.27 and the “Difference of Imax values” (Dα3/Dβ1 vs. Dα1/Dα3/Dβ1/Dβ2) was -0.091. For the same compound, the “Difference of pEC50 values” (Dα3/Dβ1 vs. Dα1/Dα3/Dβ1/Dβ2) was -0.20, the “Difference of Imax values” (Dα3/Dβ1 vs. Dα1/Dβ1/Dβ2) was -0.027 and the “Difference of pEC50 values” (Dα3/Dβ1 vs. Dα1/Dβ1/Dβ2) was -0.06. For the same compound, the “Difference of Imax values” (Dα3/Dβ1 vs. Dα2/Dα3/Dβ1) was -0.029, the “Difference of pEC50 values” (Dα3/Dβ1 vs. Dα2/Dα3/Dβ1) was 0.88 and the “Difference of Imax values” (Dα3/Dβ1 vs. Dα2/Dα3/Dβ1/Dβ2) was -0.001. The “Difference of pEC50 values” (Dα3/Dβ1 vs. Dα2/Dα3/Dβ1/Dβ2) was -0.28, the “Difference of Imax values” (Dα3/Dβ1 vs. Dα3/Dβ1/Dβ2) was -0.006 and the “Difference of pEC50 values” (Dα3/Dβ1 vs. Dα3/Dβ1/Dβ2) was -0.52.
